Source: US10883083B2, “Tissue-engineered three-dimensional model for tumor analysis” (The Trustees of Columbia University in the City of New York, priority 2013, dated 2021)

Test system: ES cells (SK-N-MC) in Col 1-HA scaffold
Test: Blebbistatin treatment of bioengineered tumor: cell morphology and exosome size (NTA)
Format: cell-based, human
Settings: blebbistatin-treated vs untreated controls, 3D setting
Procedure: To seed 3D Collagen 1-HA scaffolds, single-cell suspension of SK-N-MC cells was adjusted to the cell concentration of 1×10^6 cells/mL in a 50 ml Falcon tube. A total of 15 scaffolds were added to 30 mL of cell suspension, and the Falcon was set onto a rotary platform for 3 hours at 37° C./5% CO2. Cell seeded scaffolds were then transferred to non-treated wells in 12-multiwell plates (Nunc) and cultured in 2 mL of medium at 37° C./5% CO2. Cell numbers and were determined by Quant-iT PicoGreen dsDNA Assay Kit (Life technologies) according to the manufacturer's instructions. Exosome isolation and size analysis: Cells cultured in monolayers, aggregates and 3D scaffolds were washed with PBS twice and cultured in EMEM supplemented with 10% (v/v) Exosome-depleted FBS (SBI) and 1% penicillin/streptomycin for 12 h. The supernatants were collected and exosomes were isolated from cell culture media using the total exosome isolation kit (Invitrogen), according to the manufacturer's protocol. Exosomes from plasma samples were also isolated using the total exosome isolation kit (Invitrogen). The size distributions of exosomes were determined by Nanoparticle Tracking Analysis (NTA) using the Nanosight machine. To probe a possible mechanism underlying the observed effects of the tumor environment on exosome size, we modified the tension forces within the cells.

With `Cc1ccc2c(c1)C(=O)C1(O)CCN(c3ccccc3)C1=N2` (centres unmarked) [Blebbistatin] the “Cell morphology / cell aggregates” value was “partial disassembly of cell aggregates” and the Exosome size distribution was “shift of the exosome size distribution curve to higher values”.
